In US20240041042A1, “1-(PYRIDYL)-5-AZINYLPYRAZOLE DERIVATIVES, AND THEIR USE FOR CONTROL OF UNDESIRED PLANT GROWTH” (Bayer Aktiengesellschaft, priority 2020, published 2024):
Read-outs that look alike come from different tables or passages of the source.

Columns and labels:
Assay type in all cases: in vivo
[1] = system: Alopecurus myosuroides (ALOMY); experiment: Pre-emergence herbicidal action against ALOMY; details: scored visually after about 3 weeks, 100% = plants have died
How it was run: (§1)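 Pre-emergence soil-surface spray of compound, formulated as wettable powder or emulsion concentrate, in aqueous suspension or emulsion with 0.5% additive (600 l/ha; rate 320 g/ha or less). Activity rated visually after roughly 3 weeks in the greenhouse as a percentage of untreated controls, 0% meaning no difference.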

[2] = system: Amaranthus retroflexus (AMARE); experiment: Pre-emergence herbicidal action against AMARE; details: visual scoring after about 3 weeks vs untreated controls
How it was run: as §1

Avena fatua (AVEFA) [3] = experiment: Pre-emergence herbicidal action against AVEFA; details: 320 g/ha, visual scoring after about 3 weeks vs untreated controls
How it was run: as §1

[4] = system: Digitaria sanguinalis (DIGSA); experiment: Pre-emergence herbicidal action against DIGSA
How it was run: as §1

[5] = system: Echinochloa crus-galli (ECHCG); experiment: Pre-emergence herbicidal action against ECHCG; details: dosage 320 g/ha
How it was run: as §1

Lolium rigidum (LOLRI) [6] = experiment: Pre-emergence herbicidal action against LOLRI
How it was run: as §1

[7] = system: Matricaria inodora (MATIN); experiment: Pre-emergence herbicidal action against MATIN; details: dosage 320 g/ha
How it was run: as §1

[8] = system: Pharbitis purpurea (PHBPU); experiment: Pre-emergence herbicidal action against PHBPU
How it was run: as §1

[9] = system: Polygonum convolvulus (POLCO); experiment: Pre-emergence herbicidal action against POLCO; details: dosage 320 g/ha
How it was run: as §1

Setaria viridis (SETVI) [10] = experiment: Pre-emergence herbicidal action against SETVI
How it was run: as §1

[11] = system: Verconica persica (VERPE); experiment: Pre-emergence herbicidal action against VERPE; details: dosage 320 g/ha
How it was run: as §1

Viola tricolor (VIOTR) [12] = experiment: Pre-emergence herbicidal action against VIOTR; details: 320 g/ha, Viola tricolor
How it was run: as §1

Oryza sativa (ORYSA) [13] = details: pre-emergence, 80 g/ha, crop plant compatibility, in comparison to untreated controls
How it was run: (§2)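 Scoring: visual, % of untreated control, about 3 weeks after a pre-emergence application to the soil surface. Application used WP or EC formulations diluted in water with 0.5% additive at 600 l/ha; dosage levels are marked by suffixes a, b and c.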

[14] = system: Abutilon theophrasti (ABUTH); experiment: Post-emergence herbicidal action against ABUTH; details: 80 g/ha, visual rating about 3 weeks after treatment vs untreated controls (100% = plants have died, 0% = like control plants)
How it was run: (§3)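 Values are percent visual activity (0% like control, 100% plants dead) after about 3 weeks in the greenhouse. Treatment: post-emergence spray at one-leaf stage, 600 l/ha spray volume, 0.5% additive, doses 320 g/ha or lower.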

[15] = system: Alopecurus myosuroides (ALOMY); experiment: Post-emergence herbicidal action against ALOMY; details: visual rating about 3 weeks after treatment vs untreated controls (100% = plants have died, 0% = like control plants)
How it was run: as §3

[16] = system: Amaranthus retroflexus (AMARE); experiment: Post-emergence herbicidal action against AMARE
How it was run: as §3

Avena fatua (AVEFA) [17] = experiment: Post-emergence herbicidal action against AVEFA; details: visual rating about 3 weeks after treatment
How it was run: as §3

[18] = system: Digitaria sanguinalis (DIGSA); experiment: Post-emergence herbicidal action against DIGSA; details: visual rating about 3 weeks after treatment
How it was run: as §3

[19] = system: Echinochloa crus-galli (ECHCG); experiment: Post-emergence herbicidal action against ECHCG
How it was run: as §3

Lolium rigidum (LOLRI) [20] = experiment: Post-emergence herbicidal action against LOLRI
How it was run: as §3

[21] = system: Matricaria inodora (MATIN); experiment: Post-emergence herbicidal action against MATIN; details: dosage 80 g/ha
How it was run: as §3

[22] = system: Pharbitis purpurea (PHBPU); experiment: Post-emergence herbicidal action against PHBPU
How it was run: as §3

Setaria viridis (SETVI) [23] = experiment: Post-emergence herbicidal action against SETVI
How it was run: as §3

[24] = system: Verconica persica (VERPE); experiment: Post-emergence herbicidal action against VERPE
How it was run: as §3

Viola tricolor (VIOTR) [25] = experiment: Post-emergence herbicidal action against VIOTR
How it was run: as §3

Oryza sativa (ORYSA) [26] = details: crop plant compatibility
How it was run: (§4)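 Percent effect on the crop was judged by eye against untreated controls, where 0% means like control and 100% means dead plants. Plants had been sprayed post-emergence at the one-leaf stage and then kept under optimum greenhouse conditions for about 3 weeks.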

Zea mays (ZEAMX) [27] = details: pre-emergence, 80 g/ha, crop plant compatibility, in comparison to untreated controls
How it was run: as §2

Zea mays (ZEAMX) [28] = details: for Post-emergence action against ZEAMX in %: crop plant compatibility, effect vs untreated controls
How it was run: as §4

[29] = system: Polygonum convolvulus (POLCO); experiment: Post-emergence herbicidal action against POLCO; details: dosage 320 g/ha
How it was run: as §3

[30] = 80 g/ha, visual scoring after about 3 weeks vs untreated controls
[31] = 80 g/ha, visual rating about 3 weeks after treatment vs untreated controls (100% = plants have died, 0% = like control plants)
[32] = 20 g/ha, effect vs untreated controls
[33] = 80 g/ha, effect in comparison to untreated controls

SMILES: COC(=O)CNC(=O)COc1nn(-c2ccccn2)c(-c2ccc(F)nc2)c1Cl [Example I-64]
- Pre-emergence action against ALOMY ([1]; 80 g/ha): 90%
- Pre-emergence action against ALOMY ([1]; 320 g/ha): 100%
- Pre-emergence action against AMARE in % ([2]; 80 g/ha): 100%
- Pre-emergence action against AMARE in % ([2]; 320 g/ha): 100%
- Pre-emergence action against AVEFA in % (Avena fatua (AVEFA) [3]): 90%
- Pre-emergence action against DIGSA in % [4, 30]: 100%
- Pre-emergence action against DIGSA in % ([4]; dosage 320 g/ha): 100%
- Pre-emergence action against ECHCG in % [5]: 100%
- Pre-emergence action against LOLRI in % (Lolium rigidum (LOLRI) [6]; dosage 80 g/ha): 80%
- Pre-emergence action against LOLRI in % (Lolium rigidum (LOLRI) [6]; dosage 320 g/ha): 100%
- Pre-emergence action against MATIN in % [7]: 90%
- Pre-emergence action against PHBPU in % ([8]; dosage 80 g/ha): 90%
- Pre-emergence action against PHBPU in % ([8]; dosage 320 g/ha): 90%
- Pre-emergence action against POLCO in % [9]: 90%
- Pre-emergence action against SETVI in % (Setaria viridis (SETVI) [10]; dosage 80 g/ha): 90%
- Pre-emergence action against SETVI in % (Setaria viridis (SETVI) [10]; dosage 320 g/ha): 100%
- Pre-emergence action against VERPE in % [11]: 90%
- Pre-emergence action against VIOTR in % (Viola tricolor (VIOTR) [12]): 90%
- Pre-emergence action against ORYSA in % (Oryza sativa (ORYSA) [13]): 20%
- Post-emergence action against ABUTH in % [14]: 90%
- Post-emergence action against ALOMY in % ([15]; 80 g/ha): 100%
- Post-emergence action against AMARE in % [16, 31]: 90%
- Post-emergence action against AVEFA in % (Avena fatua (AVEFA) [17]; 80 g/ha): 80%
- Post-emergence action against DIGSA in % ([18]; 80 g/ha): 90%
- Post-emergence action against ECHCG in % ([19]; dosage 80 g/ha): 90%
- Post-emergence action against LOLRI in % (Lolium rigidum (LOLRI) [20]; dosage 80 g/ha): 80%
- Post-emergence action against MATIN in % [21]: 90%
- Post-emergence action against PHBPU in % ([22]; dosage 80 g/ha): 90%
- Post-emergence action against SETVI in % (Setaria viridis (SETVI) [23]; dosage 80 g/ha): 90%
- Post-emergence action against VERPE in % ([24]; dosage 80 g/ha): 90%
- Post-emergence action against VIOTR in % (Viola tricolor (VIOTR) [25]; 80 g/ha): 80%
- Post-emergence action against ORYSA in % (Oryza sativa (ORYSA) [26]; [32]): 10%

SMILES: O=C(COc1nn(-c2ccccn2)c(-c2ccc(F)nc2)c1Br)OCC1CCOC1 (stereo not shown) [Example I-90]
- Pre-emergence action against ALOMY ([1]; 80 g/ha): 90%
- Pre-emergence action against ALOMY ([1]; 320 g/ha): 100%
- Pre-emergence action against AMARE in % ([2]; 80 g/ha): 100%
- Pre-emergence action against AMARE in % ([2]; 320 g/ha): 100%
- Pre-emergence action against DIGSA in % [4, 30]: 100%
- Pre-emergence action against DIGSA in % ([4]; dosage 320 g/ha): 100%
- Pre-emergence action against ECHCG in % [5]: 100%
- Pre-emergence action against LOLRI in % (Lolium rigidum (LOLRI) [6]; dosage 320 g/ha): 100%
- Pre-emergence action against MATIN in % [7]: 90%
- Pre-emergence action against PHBPU in % ([8]; dosage 320 g/ha): 90%
- Pre-emergence action against POLCO in % [9]: 90%
- Pre-emergence action against SETVI in % (Setaria viridis (SETVI) [10]; dosage 80 g/ha): 90%
- Pre-emergence action against SETVI in % (Setaria viridis (SETVI) [10]; dosage 320 g/ha): 100%
- Pre-emergence action against VERPE in % [11]: 90%
- Pre-emergence action against VIOTR in % (Viola tricolor (VIOTR) [12]): 90%
- Pre-emergence action against ORYSA in % (Oryza sativa (ORYSA) [13]): 10%
- Pre-emergence action against ZEAMX in % (Zea mays (ZEAMX) [27]): 20%
- Post-emergence action against ALOMY in % ([15]; 80 g/ha): 90%
- Post-emergence action against AMARE in % [16, 31]: 80%
- Post-emergence action against DIGSA in % ([18]; 80 g/ha): 90%
- Post-emergence action against VERPE in % ([24]; dosage 80 g/ha): 90%
- Post-emergence action against ORYSA in % (Oryza sativa (ORYSA) [26]; [32]): 0%
- Post-emergence action against ORYSA in % (Oryza sativa (ORYSA) [26]; [33]): 0%
- Post-emergence action against ZEAMX in % (crop plant compatibility) (Zea mays (ZEAMX) [28]; 20 g/ha, ZEAMX, effect in comparison to untreated controls): 0%
- Post-emergence action against ZEAMX in % (Zea mays (ZEAMX) [28]; 80 g/ha): 10%

SMILES: O=C(O)COc1nn(-c2nc(F)ccc2F)c(-c2ccc(F)nc2)c1C1CC1 [Example I-302]
- Pre-emergence action against ALOMY ([1]; 320 g/ha): 90%
- Pre-emergence action against AMARE in % ([2]; 320 g/ha): 90%
- Pre-emergence action against DIGSA in % [4, 30]: 90%
- Pre-emergence action against DIGSA in % ([4]; dosage 320 g/ha): 100%
- Pre-emergence action against ECHCG in % [5]: 90%
- Pre-emergence action against LOLRI in % (Lolium rigidum (LOLRI) [6]; dosage 80 g/ha): 80%
- Pre-emergence action against LOLRI in % (Lolium rigidum (LOLRI) [6]; dosage 320 g/ha): 90%
- Pre-emergence action against MATIN in % [7]: 90%
- Pre-emergence action against SETVI in % (Setaria viridis (SETVI) [10]; dosage 320 g/ha): 100%
- Pre-emergence action against VERPE in % [11]: 90%
- Pre-emergence action against VIOTR in % (Viola tricolor (VIOTR) [12]): 90%
- Pre-emergence action against ORYSA in % (Oryza sativa (ORYSA) [13]): 20%
- Pre-emergence action against ZEAMX in % (Zea mays (ZEAMX) [27]): 10%
- Post-emergence action against ALOMY in % ([15]; 80 g/ha): 80%
- Post-emergence action against ALOMY in % ([15]; 320 g/ha): 90%
- Post-emergence action against AMARE in % [16, 31]: 80%
- Post-emergence action against AMARE in % ([16]; 320 g/ha, visual rating about 3 weeks after treatment): 90%
- Post-emergence action against AVEFA in % (Avena fatua (AVEFA) [17]; 80 g/ha): 80%
- Post-emergence action against AVEFA in % (Avena fatua (AVEFA) [17]; 320 g/ha): 80%
- Post-emergence action against DIGSA in % ([18]; 320 g/ha): 80%
- Post-emergence action against ECHCG in % ([19]; dosage 320 g/ha): 80%
- Post-emergence action against LOLRI in % (Lolium rigidum (LOLRI) [20]; dosage 320 g/ha): 80%
- Post-emergence action against PHBPU in % ([22]; dosage 320 g/ha): 80%
- Post-emergence action against POLCO in % [29]: 80%
- Post-emergence action against SETVI in % (Setaria viridis (SETVI) [23]; dosage 80 g/ha): 80%
- Post-emergence action against SETVI in % (Setaria viridis (SETVI) [23]; dosage 320 g/ha): 90%
- Post-emergence action against VERPE in % ([24]; 320 g/ha, VERPE): 80%
- Post-emergence action against VIOTR in % (Viola tricolor (VIOTR) [25]; 320 g/ha): 80%
- Post-emergence action against ORYSA in % (Oryza sativa (ORYSA) [26]; [33]): 20%
- Post-emergence action against ZEAMX in % (Zea mays (ZEAMX) [28]; 80 g/ha): 0%
- Post-emergence action against ZEAMX in % (Zea mays (ZEAMX) [28]; 320 g/ha): 10%
